Source: patent US20240050428A1 (Cullgen (Shanghai), Inc., priority 2020, published 2024)
Read-outs that look alike come from different tables or passages of the source.

Tests used:
[1] = tested on: MV4;11 cells; test: Cell viability assay (CellTiter-Glo) in MV4;11 cells, alone or with gilteritinib; type: cell-based; conditions: Homo sapiens, MV4-11, 72 h, MV4;11 cells, CellTiter-Glo, read-out: MV4
[2] = tested on: MOLM-13 cells; test: Cell viability assay (CellTiter-Glo) in MOLM-13 cells, alone or with gilteritinib; type: cell-based; conditions: Homo sapiens, MOLM-13, 72 h, MOLM-13 cells, CellTiter-Glo
[3] = compound alone (without gilteritinib), three days, 11 IC50
[4] = compound with gilteritinib 10 nM, three days, 11 IC50 gilteritinib
[5] = compound alone (without gilteritinib), three days, read-out: MOLM-13 IC50
[6] = compound with gilteritinib 20 nM, three days, read-out: MOLM-13 IC50 gilteritinib
[7] = with gilteritinib 10 nM, three days, 11 IC50 gilteritinib
[8] = with gilteritinib 20 nM, three days, read-out: MOLM-13 IC50 gilteritinib

Compound	IC50 [1, 3]	IC50 [1, 4]	IC50 [2, 5]	IC50 [2, 6]	IC50 [1, 7]	IC50 [2, 8]	IC50 ([1]; with 10 nM gilteritinib, 3 days, 11 IC50 gilteritinib)	IC50 ([1]; without gilteritinib, 3 days, 11 IC50)	IC50 ([2]; with 20 nM gilteritinib, 3 days, read-out: MOLM-13 IC50 gilteritinib)	IC50 ([2]; without gilteritinib, 3 days, read-out: MOLM-13 IC50)
CC(CCCNc1ccc2c(c1)C(=O)N(C1CCC(=O)NC1=O)C2=O)C(=O)N1CCC(n2cc(-c3cnc4ccccc4n3)cn2)CC1 (stereo not shown) [GS-138, 2-(2,6-Dioxopiperidin-3-yl)-5-((4-methyl-5-oxo-5-(4-(4-(quinoxalin-2-yl)-1H-pyrazol-1-yl)piperidin-1-yl)pentyl)amino)iaoindoline-1,3-dione]	> 1 µM	–	> 1 µM	–	> 1 µM	> 1 µM	–	–	–	–
O=C1CCC(N2Cc3cc(NC(=O)c4cccc(N5CCC(n6cc(-c7cnc8ccccc8n7)cn6)CC5)c4)ccc3C2=O)C(=O)N1 (stereo not shown) [GS-513, N-(2-(2,6-Dioxopiperidin-3-yl)-1-oxoisoindolin-5-yl)-3-(4-(4-(quinoxalin-2-yl)-1H-pyrazol-1-yl)piperidin-1-yl)benzamide]	< 0.01 µM	< 0.01 µM	< 0.01 µM	< 0.01 µM	–	–	–	–	–	–
CN1CCN(c2cn([C@H]3C[C@H](CNc4ccc5c(c4)C(=O)N(C4CCC(=O)NC4=O)C5=O)C3)nc2C2CC2)CC1 (stereo partly drawn) [GS-459, 5-(((trans-3-(3-cyclopropyl-4-(4-methylpiperazin-1-yl)-1H-pyrazol-1-yl)cyclobutyl)methyl)amino)-2-(2,6-dioxopiperidin-3-yl)isoindoline-1,3-dione]	> 1 µM	> 1 µM	> 1 µM	> 1 µM	–	–	–	–	–	–
Cc1cccc(-c2cn([C@H]3C[C@H](CNc4ccc5c(c4)C(=O)N(C4CCC(=O)NC4=O)C5=O)C3)nc2C2CCNCC2)n1 (stereo partly drawn) [GS-638, 2-(2,6-Dioxopiperidin-3-yl)-5-(((trans-3-(4-(6-methylpyridin-2-yl)-3-(piperidin-4-yl)-1H-pyrazol-1-yl)cyclobutyl)methyl)amino)isoindoline-1,3-dione]	> 1 µM	> 1 µM	> 1 µM	> 1 µM	–	–	–	–	–	–
O=C1CCC(N2Cc3c(Nc4ccnc(Nc5cccc(N6CCC(c7ccccn7)CC6)c5)n4)cccc3C2=O)C(=O)N1 (stereo not shown) [GS-077, 3-(1-Oxo-4-((2-((3-(4-(pyridin-2-yl)piperidin-1-yl)phenyl)amino)pyrimidin-4-yl)amino)isoindolin-2-yl)piperidine-2,6-dione]	< 0.01 µM	–	0.01 to 0.1 µM	–	< 0.01 µM	< 0.01 µM	–	–	–	–
O=C1CCC(N2Cc3ccc(CCCCCC(=O)N4CCC(n5cc(-c6ccc7ccccc7n6)cn5)CC4)cc3C2=O)C(=O)N1 (stereo not shown) [GS-102, 3-(1-Oxo-6-(6-oxo-6-(4-(4-(quinolin-2-yl)-1H-pyrazol-1-yl)piperidin-1-yl)hexyl)isoindolin-2-yl)piperidine-2,6-dione]	0.01 to 0.1 µM	–	0.1 to 1 µM	–	< 0.01 µM	0.01 to 0.1 µM	–	–	–	–
Cc1cccc(-c2cn([C@H]3C[C@H](CNc4ccc5c(c4)C(=O)N(C4CCC(=O)NC4=O)C5=O)C3)nc2C(=O)N(C)C)n1 (stereo partly drawn) [GS-636, 1-(trans-3-(((2-(2,6-dioxopiperidin-3-yl)-1,3-dioxoisoindolin-5-yl)amino)methyl)cyclobutyl)-N,N-dimethyl-4-(6-methylpyridin-2-yl)-1H-pyrazole-3-carboxamide]	> 1 µM	> 1 µM	> 1 µM	> 1 µM	–	–	–	–	–	–
O=C1CCC(N2Cc3cc(NC(=O)CCCCC(=O)N4CCC(n5cc(-c6cnc7cccc(Br)c7n6)cn5)CC4)ccc3C2=O)C(=O)N1 (stereo not shown) [GS-020, 6-(4-(4-(8-Bromoquinoxalin-2-yl)-1H-pyrazol-1-yl)piperidin-1-yl)-N-(2-(2,6-dioxopiperidin-3-yl)-1-oxoisoindolin-5-yl)-6-oxohexanamide]	–	–	–	–	–	–	0.003 µM	0.029 µM	0.011 µM	0.087 µM
O=C1CCC(N2C(=O)c3ccc(NCCCCCC(=O)N4CCC(n5cc(-c6cnc7ccc(N8CCOCC8)cc7n6)cn5)CC4)cc3C2=O)C(=O)N1 (stereo not shown) [GS-528, 2-(2,6-Dioxopiperidin-3-yl)-5-((6-(4-(4-(7-morpholinoquinoxalin-2-yl)-1H-pyrazol-1-yl)piperidin-1-yl)-6-oxohexyl)amino)isoindoline-1,3-dione]	< 0.01 µM	< 0.01 µM	< 0.01 µM	< 0.01 µM	–	–	–	–	–	–

Now from value to compound:

IC50 [1, 3]	IC50 [1, 4]	IC50 [2, 5]	IC50 [2, 6]	IC50 [1, 7]	IC50 [2, 8]	IC50 ([1]; with 10 nM gilteritinib, 3 days, 11 IC50 gilteritinib)	IC50 ([1]; without gilteritinib, 3 days, 11 IC50)	IC50 ([2]; with 20 nM gilteritinib, 3 days, read-out: MOLM-13 IC50 gilteritinib)	IC50 ([2]; without gilteritinib, 3 days, read-out: MOLM-13 IC50)	Compound
> 1 µM	0.01 to 0.1 µM	0.01 to 0.1 µM	0.1 to 1 µM	–	–	–	–	–	–	O=C1CCC(N2C(=O)c3ccc(NC[C@H]4C[C@H](n5cc(-c6cccc(NC7CCOCC7)n6)c(C6CC6)n5)C4)cc3C2=O)C(=O)N1 (stereo partly drawn) [GS-441, 5-(((trans-3-(3-cyclopropyl-4-(6-((tetrahydro-2H-pyran-4-yl)amino)pyridin-2-yl)-1H-pyrazol-1-yl)cyclobutyl)methyl)amino)-2-(2,6-dioxopiperidin-3-yl)isoindoline-1,3-dione]
< 0.01 µM	< 0.01 µM	0.01 to 0.1 µM	< 0.01 µM	–	–	–	–	–	–	Cn1ccc2cnc(-c3cn([C@H]4C[C@H](CNc5ccc6c(c5)C(=O)N(C5CCC(=O)NC5=O)C6=O)C4)nc3C3CC3)cc21 (stereo partly drawn) [GS-618, 5-(((trans-3-(3-Cyclopropyl-4-(1-methyl-1H-pyrrolo[3,2-c]pyridin-6-yl)-1H-pyrazol-1-yl)cyclobutyl)methyl)amino)-2-(2,6-dioxopiperidin-3-yl)isoindoline-1,3-dione]
> 1 µM	> 1 µM	> 1 µM	> 1 µM	–	–	–	–	–	–	O=C1CCC(N2C(=O)c3ccc(NC[C@H]4C[C@H](n5cc(N6CCNCC6)c(C6CC6)n5)C4)cc3C2=O)C(=O)N1 (stereo partly drawn) [GS-455, 5-(((trans-3-(3-cyclopropyl-4-(piperazin-1-yl)-1H-pyrazol-1-yl)cyclobutyl)methyl)amino)-2-(2,6-dioxopiperidin-3-yl)isoindoline-1,3-dione]
0.01 to 0.1 µM	< 0.01 µM	0.01 to 0.1 µM	< 0.01 µM	–	–	–	–	–	–	Cc1cccc(-c2cn([C@H]3C[C@H](CNc4ccc5c(c4)C(=O)N(C4CCC(=O)NC4=O)C5=O)C3)nc2C(F)F)n1 (stereo partly drawn) [GS-444, 5-(((trans-3-(3-(difluoromethyl)-4-(6-methylpyridin-2-yl)-1H-pyrazol-1-yl)cyclobutyl)methyl)amino)-2-(2,6-dioxopiperidin-3-yl)isoindoline-1,3-dione]
0.01 to 0.1 µM	–	0.01 to 0.1 µM	–	< 0.01 µM	< 0.01 µM	–	–	–	–	O=C1CCC(N2C(=O)c3ccc(NCCC[C@H]4C[C@@H](n5cc(-c6cnc7ccc(C8CCNCC8)cc7n6)c(C6CC6)n5)C4)cc3C2=O)C(=O)N1 (stereo partly drawn) [GS-231, 5-((3-(cis-3-(3-Cyclopropyl-4-(7-(piperidin-4-yl)quinoxalin-2-yl)-1H-pyrazol-1-yl)cyclobutyl)propyl)amino)-2-(2,6-dixopiperidin-3-yl)isoindoline-1,3-dione]
> 1 µM	–	> 1 µM	–	> 1 µM	0.1 to 1 µM	–	–	–	–	CN(c1ccccc1)C1CN(C(=O)CCCCCNc2ccc3c(c2)C(=O)N(C2CCC(=O)NC2=O)C3=O)C1 (stereo not shown) [GS-337, 2-(2,6-Dioxopiperidin-3-yl)-5-((6-(3-(methyl(phenyl)amino)azetidin-1-yl)-6-oxohexyl)amino)isoindoline-1,3-dione]
0.01 to 0.1 µM	< 0.01 µM	0.01 to 0.1 µM	< 0.01 µM	–	–	–	–	–	–	Cc1nc(-c2cn([C@H]3C[C@H](CNc4ccc5c(c4)C(=O)N(C4CCC(=O)NC4=O)C5=O)C3)nc2C(F)F)ccc1F (stereo partly drawn) [GS-635, 5-(((trans-3-(3-(Difluoromethyl)-4-(5-fluoro-6-methylpyridin-2-yl)-1H-pyrazol-1-yl)cyclobutyl)methyl)amino)-2-(2,6-dioxopiperidin-3-yl)isoindoline-1,3-dione]
